US10851065B2 (Eisai R&D Management Co., Ltd., priority 2015, dated 2020)

How the values were obtained:
[1] = system: MCF7-WT cells (MCF7 ER-alpha wildtype); test: In vitro proliferation (viability) assay, CellTiter-Glo, MCF7-WT cells; type: cell-based; details: Homo sapiens; MCF7-WT cells, 6 days, CTG vs day 0; mean ± SD-type spread (n); read-out: GI50 WT
Protocol: (§1) MCF7 BUS cells (Coser, et al., (2003) PNAS 100(24): 13994-13999) were maintained in Dulbecco's Modified Eagle Medium supplemented with 10% FBS, 4 mM L-glutamine and 1× non-essential amino acids. Lenti-X 293T cells (Clontech, Cat #632180) were routinely cultured in Dulbecco's Modified Eagle Medium supplemented with 10% FBS.
(§2) The QuikChange II XL Site-Directed Mutagenesis Kit (Agilent Technologies, Cat #200523) was used to generate Y537S, Y537C, Y537N and D538G mutations within the ERα exon 8. Wild-type ESR1 cDNA (GeneCopoeia Inc., Cat #GC-A0322, accession no. NM 000125) was used as a template with the following mutagenesis primers (where the underlined nucleotides represent site mutations); Y537S: F-AAGAACGTGGTGCCCCTCTCTGACCTGCTGCTGGAGATG (SEQ ID NO: 1), R-CATCTCCAGCAGCAGGTCAGAGAGGGGCACCACGTTCTT (SEQ ID NO: 2); Y537N: F-AAGAACGTGGTGCCCCTCAATGACCTGCTGCTGGAGATG (SEQ ID NO: 3), R-CATCTCCAGCAGCAGGTCATTGAGGGGCACCACGTTCTT (SEQ ID NO: 4); Y537C: F-AAGAACGTGGTGCCCCTCTGTGACCTGCTGCTGGAGATG (SEQ ID NO: 5), R-CATCTCCAGCAGCAGGTCACAGAGGGGCACCACGTTCTT (SEQ ID NO: 6); D538G: F-AACGTGGTGCCCCTCTATGGCCTGCTGCTGGAGATGCTG (SEQ ID NO: 7), R-CAGCATCTCCAGCAGCAGGCCATAGAGGGGCACCACGTT (SEQ ID NO: 8). WT and mutant ESR1 cDNAs were cloned into the designation lentiviral vector pLenti6.3/V5-Dest (Invitrogen, Cat #V533-06). To make lentivirus, DNAs (WT and mutant ESR1) were co-transfected with packaging plasmids into Lenti-X 293T cells using TransIT (Mirus, Cat #MIR 2700). 48 h post-transfection, virus containing media was filtered and added to MCF7 cells in the presence of 8 µg/ml polybrene overnight. Two days following infection, cells were placed under selection with 10 μg/ml blasticidin for 2 weeks for stable expression.
(§3) MCF7-WT and -Y537S cells were seeded at 1500 cells/well in black-walled 96-well plates (assay plates, Costar, Cat #3904). In parallel, cells were also seeded in a separate 96-well plate (8 wells/cell line, control plate) for which a CTG (CellTiter-Glo® Luminescent Viability Assay, Promega, Cat #G7572) was measured the following day (day 0 reading). The day 0 reading was used for the GI50 calculation at the termination of the experiment. The day following seeding, compounds were added to assay plates. Briefly, a 1:4 serial dilution was prepared in DMSO at 200× final concentration for a total of 10 concentrations (9 dilutions containing compound and one is DMSO only). Serially diluted compounds were pipetted into medium to prepare a compound-medium mix at 10× final concentration. 10 μl of compound-medium mix was added to MCF7-WT and -Y537S cells at 3 wells/concentration (triplicate for each concentration). On day 3, media/compound was removed and replaced with fresh media/compound as described above. On day 6, CTG was measured and compared to day 0 readings from control plate to assess GI50.

[2] = system: MCF7-Y537S cells (MCF7 ER-alpha Y537S mutant); test: In vitro proliferation (viability) assay, CellTiter-Glo, MCF7-Y537S cells; type: cell-based; details: Homo sapiens; MCF7-Y537S cells, 6 days, CTG vs day 0; mean ± SD-type spread (n); read-out: GI50 MUT (Y537S)
Protocol: as §1, §2, §3

Row | Compound | GI50 [1] | GI50 [2]
1 | CC/C(=C(/c1ccc(OCCNC/C=C/C(=O)N(C)C)nc1)c1ccc2[nH]ncc2c1)c1ccccc1 [Compound 25, (E)-4-((2-((5-((Z)-1-(1H-indazol-5-yl)-2-phenylbut-1-en-1-yl)pyridin-2-yl)oxy)ethyl)amino)-N,N-dimethylbut-2-enamide] | 1.15 ± 0.3 nM | 19.6 ± 4.26 nM
2 | CN(C)C(=O)/C=C/CNCCOc1ccc(/C(=C(/CC(F)(F)F)c2ccc(F)cc2Cl)c2ccc3[nH]nc(F)c3c2)cc1 [Compound 87, (E)-4-((2-(4-((E)-2-(2-chloro-4-fluorophenyl)-4,4,4-trifluoro-1-(3-fluoro-1H-indazol-5-yl)but-1-en-1-yl)phenoxy)ethyl)amino)-N,N-dimethylbut-2-enamide] | 0.25 nM | 21.9 nM
3 | CC/C(=C(/c1ccc(OCCNC/C=C/C(=O)N(C)C)cc1)c1ccc2[nH]nc(F)c2c1)c1cc(F)ccc1F [Compound 80, (E)-4-((2-(4-((E)-2-(2,5-difluorophenyl)-1-(3-fluoro-1H-indazol-5-yl)but-1-en-1-yl)phenoxy)ethyl)amino)-N,N-dimethylbut-2-enamide] | 2 nM | 33.6 nM
4 | CC/C(=C(/c1ccc(OCCNC/C=C/C(=O)N(C)C)c(F)c1)c1ccc2[nH]nc(F)c2c1)c1ccccc1 [Compound 49, (E)-4-((2-(2-fluoro-4-((Z)-1-(3-fluoro-1H-indazol-5-yl)-2-phenylbut-1-en-1-yl)phenoxy)ethyl)amino)-N,N-dimethylbut-2-enamide] | 5.4 nM | 288 nM
5 | CC/C(=C(/c1ccc(OCC(C)(C)NC/C=C/C(=O)N(C)C)cc1)c1ccc2[nH]ncc2c1)c1ccccc1 [Compound 98, (E)-4-((1-(4-((E)-1-(1H-indazol-5-yl)-2-phenylbut-1-en-1-yl)phenoxy)-2-methylpropan-2-yl)amino)-N,N-dimethylbut-2-enamide] | 0.4 nM | 13.4 nM
6 | CC/C(=C(/c1ccc(OCCNC/C=C/C(=O)N(C)CCO)cc1)c1ccc2[nH]nc(F)c2c1)c1ccncc1 [Compound 75, (E)-4-((2-(4-((E)-1-(3-fluoro-1H-indazol-5-yl)-2-(pyridin-4-yl)but-1-en-1-yl)phenoxy)ethyl)amino)-N-(2-hydroxyethyl)-N-methylbut-2-enamide] | 3.2 nM | 72.2 nM
7 | CC/C(=C(/c1ccc(OCCNC/C=C/C(=O)N(C)C)cc1)c1ccc2[nH]ncc2c1)c1cc(F)cc(Cl)c1 [Compound 7, (E)-4-((2-(4-((E)-2-(3-chloro-5-fluorophenyl)-1-(1H-indazol-5-yl)but-1-en-1-yl)phenoxy)ethyl)amino)-N,N-dimethylbut-2-enamide] | 1.92 nM | 74.1 ± 55.2 nM
8 | CC/C(=C(/c1ccc(OCCNC/C=C(\C)C(=O)N(C)C)cc1)c1ccc2[nH]nc(F)c2c1)c1ccc(F)cc1Cl [Compound 86] | 1.73 ± 1 nM | 29.4 ± 4.7 nM

Continued by falling GI50 [1], values first:

Row | GI50 [1] | GI50 [2] | Compound
9 | 3.84 nM | 66.3 nM | CN(CCO)C(=O)/C=C/CNCCOc1ccc(/C(=C(\c2ccccc2)C2CCC2)c2ccc3[nH]ncc3c2)cc1 [Compound 41, (E)-4-((2-(4-((E)-2-cyclobutyl-1-(1H-indazol-5-yl)-2-phenylvinyl)phenoxy)ethyl)amino)-N-(2-hydroxyethyl)-N-methylbut-2-enamide]
10 | 3.78 ± 1.75 nM | 63.6 ± 18.4 nM | CN(C)C(=O)/C=C/CNCCOc1ccc(/C(=C(\c2ccccc2)C2CC2)c2ccc3[nH]ncc3c2)cc1 [Compound 56, (E)-4-((2-(4-((E)-2-cyclopropyl-1-(1H-indazol-5-yl)-2-phenylvinyl)phenoxy)ethyl)amino)-N,N-dimethylbut-2-enamide]
11 | 2.9 nM | 85.8 nM | CC/C(=C(/c1ccc(OCCNC/C=C/C(=O)N(C)C)cc1)c1ccc2[nH]nc(F)c2c1)c1ccncc1 [Compound 52, (E)-4-((2-(4-((E)-1-(3-fluoro-1H-indazol-5-yl)-2-(pyridin-4-yl)but-1-en-1-yl)phenoxy)ethyl)amino)-N,N-dimethylbut-2-enamide]
